Target: Acetylcholinesterase (Homo sapiens, UniProt P22303)
Assay: Inhibition of AChE (unknown origin) using acetylthiocholine chloride as substrate after 15 min by Ellman's method

Acetylcholinesterase, sequence (P22303 whole entry): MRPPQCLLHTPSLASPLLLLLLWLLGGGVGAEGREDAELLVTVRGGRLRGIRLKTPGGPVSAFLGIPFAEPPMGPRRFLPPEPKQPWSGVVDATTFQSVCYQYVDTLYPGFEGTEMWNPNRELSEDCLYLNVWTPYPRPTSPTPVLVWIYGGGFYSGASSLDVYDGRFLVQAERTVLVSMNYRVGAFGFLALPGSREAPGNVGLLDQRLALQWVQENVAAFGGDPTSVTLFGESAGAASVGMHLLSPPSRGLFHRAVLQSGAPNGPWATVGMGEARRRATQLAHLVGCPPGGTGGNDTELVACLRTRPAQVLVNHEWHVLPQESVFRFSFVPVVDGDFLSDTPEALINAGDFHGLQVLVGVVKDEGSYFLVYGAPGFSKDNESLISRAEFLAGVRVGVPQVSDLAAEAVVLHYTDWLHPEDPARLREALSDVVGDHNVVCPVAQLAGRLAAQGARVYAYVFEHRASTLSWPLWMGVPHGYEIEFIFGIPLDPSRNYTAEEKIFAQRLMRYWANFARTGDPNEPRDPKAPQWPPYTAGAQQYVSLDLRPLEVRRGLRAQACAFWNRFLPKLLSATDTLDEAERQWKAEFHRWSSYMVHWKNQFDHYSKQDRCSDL

In order of falling IC50:
1. CC1(C)CC(=O)C2=C(C1)Oc1nc3c(c(N)c1[C@H]2c1ccc([N+](=O)[O-])cc1)CCCC3  93.3 µM
2. CC1(C)CC(=O)C2=C(C1)Oc1nc3c(c(N)c1[C@H]2c1ccc(F)cc1)CCCC3  69.2 µM
3. Cc1ccc([C@H]2C3=C(CC(C)(C)CC3=O)Oc3nc4c(c(N)c32)CCCC4)cc1  51.3 µM
4. CC1(C)CC(=O)C2=C(C1)Oc1nc3c(c(N)c1[C@H]2c1ccccc1)CCCC3  49 µM
5. COc1ccc([C@H]2C3=C(CC(C)(C)CC3=O)Oc3nc4c(c(N)c32)CCCC4)cc1  40.7 µM
6. CCOC(=O)C1=C(C)Oc2nc3c(c(N)c2[C@H]1c1ccc(OC)c(OC)c1)CCCCC3  33.1 µM
7. CCOC(=O)C1=C(C)Oc2nc3c(c(N)c2[C@H]1c1cccnc1)CCCCC3  32.4 µM
8. CCOC(=O)C1=C(C)Oc2nc3c(c(N)c2[C@H]1c1cccs1)CCC3  27.5 µM
9. CCOC(=O)C1=C(C)Oc2nc3c(c(N)c2[C@H]1c1ccc(OC)c(OC)c1)CCC3  26.9 µM
10. CCOC(=O)C1=C(C)Oc2nc3c(c(N)c2[C@H]1c1cccs1)CCCC3  24.5 µM
11. CCOC(=O)C1=C(C)Oc2nc3c(c(N)c2[C@H]1c1cccc(OC)c1)CCC3  24 µM
12. CCOC(=O)c1c(C)nc2nc3c(c(N)c2c1-c1ccccc1OC)CCCCC3  21.9 µM
13. COc1cccc([C@H]2C3=C(CC(C)(C)CC3=O)Oc3nc4c(c(N)c32)CCCC4)c1  21.4 µM
14. CCOC(=O)c1c(C)nc2nc3c(c(N)c2c1-c1ccccc1)CCCCC3  20.9 µM
15. CCOC(=O)C1=C(C)Oc2nc3c(c(N)c2[C@H]1c1ccccc1OC)CCCCC3  20.9 µM
16. CCOC(=O)c1c(C)nc2nc3c(c(N)c2c1-c1ccc(Cl)cc1)CCCCC3  19.1 µM
17. CC1(C)CC(=O)C2=C(C1)Oc1nc3c(c(N)c1[C@H]2c1ccccc1C(F)(F)F)CCCC3  17.8 µM
18. CCOC(=O)c1c(C)nc2nc3c(c(N)c2c1-c1ccccc1)CCCCCC3  17 µM
19. CCOC(=O)c1c(C)nc2nc3c(c(N)c2c1-c1ccc(OC)cc1)CCCCCC3  17 µM
20. CCOC(=O)C1=C(C)Oc2nc3c(c(N)c2[C@H]1c1cccs1)CCCCC3  14.5 µM
21. CCOC(=O)c1c(C)nc2nc3c(c(N)c2c1-c1cccc([N+](=O)[O-])c1)CCCCC3  14.1 µM
22. CCOC(=O)c1c(C)nc2nc3c(c(N)c2c1-c1ccc(OC)cc1)CCC3  13.8 µM
23. CCOC(=O)C1=C(C)Oc2nc3c(c(N)c2[C@H]1c1cccc(OC)c1)CCCCC3  12.9 µM
24. CCOC(=O)c1c(C)nc2nc3c(c(N)c2c1-c1ccc(C)cc1)CCCCC3  12.9 µM
25. CC1(C)CC(=O)C2=C(C1)Oc1nc3c(c(N)c1[C@H]2c1cccc([N+](=O)[O-])c1)CCCC3  12 µM
26. CCOC(=O)c1c(C)nc2nc3c(c(N)c2c1-c1ccccc1)CCC3  12 µM
27. CCOC(=O)c1c(C)nc2nc3c(c(N)c2c1-c1ccc(OC)cc1)CCCC3  8.91 µM
28. CCOC(=O)C1=C(C)Oc2nc3c(c(N)c2[C@H]1c1ccncc1)CCCCC3  8.51 µM
29. CCOC(=O)c1c(C)nc2nc3c(c(N)c2c1-c1ccncc1)CCC3  8.13 µM
30. CCOC(=O)C1=C(C)Oc2nc3c(c(N)c2[C@H]1c1cccc(OC)c1)CCCC3  7.76 µM
31. CCOC(=O)C1=C(C)Oc2nc3c(c(N)c2[C@H]1c1cccnc1)CCCC3  7.08 µM
32. COc1ccccc1[C@H]1C2=C(CC(C)(C)CC2=O)Oc2nc3c(c(N)c21)CCCC3  7.08 µM
33. CCOC(=O)C1=C(C)Oc2nc3c(c(N)c2[C@H]1c1ccncc1)CCC3  6.61 µM
34. CCOC(=O)c1c(C)nc2nc3c(c(N)c2c1-c1ccc(OC)c(OC)c1)CCCCC3  6.46 µM
35. CCOC(=O)c1c(C)nc2nc3c(c(N)c2c1-c1ccc(F)cc1)CCCCC3  5.37 µM
36. CCOC(=O)c1c(C)nc2nc3c(c(N)c2c1-c1ccncc1)CCCCC3  5.13 µM
37. CCOC(=O)C1=C(C)Oc2nc3c(c(N)c2[C@H]1c1ccc(OC)c(OC)c1)CCCC3  4.57 µM
38. CCOC(=O)C1=C(C)Oc2nc3c(c(N)c2[C@H]1c1cccnc1OC)CCCC3  3.89 µM
39. CCOC(=O)C1=C(C)Oc2nc3c(c(N)c2[C@H]1c1ccccc1)CCC3  3.89 µM
40. CCOC(=O)C1=C(C)Oc2nc3c(c(N)c2[C@H]1c1ccc(C#N)cc1)CCCC3  3.47 µM
41. CCOC(=O)C1=C(C)Oc2nc3c(c(N)c2[C@H]1c1ccncc1)CCCC3  3.02 µM
42. CCOC(=O)C1=C(C)Oc2nc3c(c(N)c2[C@H]1c1cccnc1Cl)CCCC3  2.14 µM
43. CCOC(=O)C1=C(C)Oc2nc3c(c(N)c2[C@H]1c1ccc(Cl)cc1)CCCC3  1.95 µM
44. CCOC(=O)C1=C(C)Oc2nc3c(c(N)c2[C@H]1c1cccc([N+](=O)[O-])c1)CCCC3  1.91 µM
45. CCOC(=O)C1=C(C)Oc2nc3c(c(N)c2[C@H]1c1cccnc1Br)CCCC3  1.86 µM
46. CCOC(=O)C1=C(C)Oc2nc3c(c(N)c2[C@H]1c1ccc(C)cc1)CCCC3  1.82 µM
47. CCOC(=O)C1=C(C)Oc2nc3c(c(N)c2[C@H]1c1ccco1)CCCC3  1.7 µM
48. CCOC(=O)C1=C(C)Oc2nc3c(c(N)c2[C@H]1c1ccccc1)CCCC3  1.55 µM
49. CCOC(=O)c1c(C)nc2nc3c(c(N)c2c1-c1ccncc1)CCCC3  1.41 µM
50. CCOC(=O)c1c(C)nc2nc3c(c(N)c2c1-c1ccc(OC)cc1)CCCCC3  1.35 µM
51. CCOC(=O)c1c(C)nc2nc3c(c(N)c2c1-c1ccc(Cl)cc1)CCCC3  1.29 µM
52. CCOC(=O)c1c(C)nc2nc3c(c(N)c2c1-c1ccc(OC)c(OC)c1)CCCC3  1.29 µM
53. CCOC(=O)c1c(C)nc2nc3c(c(N)c2c1-c1cccc(OC)c1)CCCC3  1.2 µM
54. Cc1nc2nc3c(c(N)c2c(-c2ccccc2)c1C(=O)OC(C)C)CCCC3  1.2 µM
55. CCOC(=O)c1c(C)nc2nc3c(c(N)c2c1-c1cccc([N+](=O)[O-])c1)CCCC3  0.933 µM
56. CCOC(=O)C1=C(C)Oc2nc3c(c(N)c2[C@H]1c1ccc(OC)cc1)CCCC3  0.871 µM
57. CCOC(=O)c1c(C)nc2nc3c(c(N)c2c1-c1ccccc1)CCCC3  0.813 µM
58. CCOC(=O)c1c(C)nc2nc3c(c(N)c2c1-c1ccc(F)cc1)CCCC3  0.708 µM
59. CC1(C)CC(=O)C2=C(C1)Nc1nc3c(c(N)c1[C@H]2c1ccncc1)CCCC3  0.603 µM
60. CCOC(=O)C1=C(C)Nc2nc3c(c(N)c2[C@H]1c1ccc([N+](=O)[O-])cc1)CCCC3  0.603 µM
61. CC1(C)CC(=O)C2=C(C1)Nc1nc3c(c(N)c1[C@H]2c1ccc(F)cc1)CCCC3  0.537 µM
62. CC1(C)CC(=O)C2=C(C1)Nc1nc3c(c(N)c1[C@H]2c1ccccc1)CCCC3  0.324 µM
63. Cc1ccc([C@H]2C3=C(CC(C)(C)CC3=O)Nc3nc4c(c(N)c32)CCCC4)cc1  0.229 µM
64. COc1ccc([C@H]2C3=C(CC(C)(C)CC3=O)Nc3nc4c(c(N)c32)CCCC4)cc1  0.219 µM
65. CCOC(=O)C1=C(C)Nc2nc3c(c(N)c2[C@H]1c1ccc(C)cc1)CCCC3  0.0912 µM
66. CCOC(=O)C1=C(C)Nc2nc3c(c(N)c2[C@H]1c1ccccc1)CCCC3  0.0794 µM
